For data set [1], the system named is 4T1. The experiment in a line: Effect on p130Cas phosphorylation at Tyr249 residue in mouse 4T1 cells harbouring mCherry red fluorescent protein at 0.1 to 1 uM incubated for 1 hr by immunoblotting analysis. Type of data set: functional, cell-based. The conditions noted are these: dose 0.1-1 µM. (Immunoblotting shows a protein as a band on a membrane.)
In data set [2] the test system is 4T1. The experiment in a line: Effect on Src phosphorylation at Tyr416 residue in mouse 4T1 cells harbouring mCherry red fluorescent protein at 0.1 to 1 uM incubated for 1 hr by immunoblotting analysis. Type of data set: functional, cell-based. The settings on record: dose 0.1-1 µM.
The target in data set [3] is Focal adhesion kinase 1 (Mus musculus) (UniProt P34152). Description: Inhibition of FAK phosphorylation at Tyr397 residue in mouse 4T1 cells harbouring mCherry red fluorescent protein at 0.1 to 1 uM incubated for 60 mins followed by compound washout measured after 60 mins by immunoblotting analysis. Type of data set: cell-based. The conditions noted are these: dose 0.1-1 µM.

Data set [4] deals with 4T1. Description: Inhibition of cell migration in mouse 4T1 cells incubated for 4 hrs by millicell-motility assay. Type of data set: functional, cell-based. The settings on record: dose 0.1-1 µM.
Data set [5] deals with 4T1. Description: Induction of cell cycle arrest in mouse 4T1 adherent cells assessed as accumulation at G2/M phase at 1 uM measured after 72 hrs by PI staining based flow cytometry analysis (reference value: 7.9%). It is filed as functional. For orientation: In flow cytometry, cells or beads pass a laser one at a time.
Data set [6] concerns the target Focal adhesion kinase 1 (Mus musculus) (UniProt P34152). The experiment in a line: Inhibition of FAK phosphorylation at Y397 residue in mouse 4T1 adherent cells cultured as 3D spheroids at 0.1 to 1 uM incubated for 24 hrs by immunoblotting analysis. It is filed as cell-based. The settings on record: dose 0.1-1 µM.
Data set [7] relates to 4T1. The experiment in a line: Induction of apoptosis in mouse 4T1 cells assessed as increase in cell membrane blebbing at 0.4 to 1 uM measured after 2 days by phase contrast microscopy analysis. The settings on record: dose 0.4-1 µM, time 2.0 day. Type of data set: functional, cell-based.
Data set [8] can be described thus: Toxicity in C57BL6 mouse implanted with mouse ID8 cells assessed as change in body weight at 0.5 mg/ml administered as solution in 5% sucrose measured after 30 days. It is filed as cell-based. The conditions noted are these: id8, 720 h, time 30 day.
Data set [9] deals with Tyrosine-protein kinase ABL1 (Homo sapiens) (UniProt P00519). Description: Inhibition of Abl (unknown origin) at 1 uM relative to control; values are per cent of control.
The target of data set [10] is Dual specificity mitogen-activated protein kinase kinase 1 (Homo sapiens) (UniProt Q02750). Description: Inhibition of MEK1 (unknown origin) at 1 uM relative to control; values are per cent of control.
Data set [11] deals with High affinity nerve growth factor receptor (Homo sapiens) (UniProt P04629). The experiment in a line: Inhibition of TrkA (unknown origin) at 1 uM relative to control; values are per cent of control.
Data set [12] has as its target Vascular endothelial growth factor receptor 2 (Homo sapiens) (UniProt P35968). Description: Inhibition of KDR (unknown origin) at 0.1 uM relative to control; values are per cent of control.
Data set [13] has as its target Proto-oncogene tyrosine-protein kinase Src (Homo sapiens) (UniProt P12931). The experiment in a line: Inhibition of c-SRC (unknown origin) at 1 uM relative to control; values are per cent of control.
Data set [14] concerns the target Rho-associated protein kinase 1 (Homo sapiens) (UniProt Q13464). The experiment in a line: Inhibition of ROCK1 (unknown origin) at 1 uM relative to control; values are per cent of control.
The target in data set [15] is Serine/threonine-protein kinase Nek6 (Homo sapiens) (UniProt Q9HC98). Description: Inhibition of NEK6 (unknown origin) at 0.1 uM relative to control; values are per cent of control.
The target in data set [16] is RAF proto-oncogene serine/threonine-protein kinase (Homo sapiens) (UniProt P04049). Description: Inhibition of c-RAF (unknown origin) at 0.1 uM relative to control; values are per cent of control.
Data set [17] deals with Platelet-derived growth factor receptor beta (Homo sapiens) (UniProt P09619). The experiment in a line: Inhibition of PDGFRb (unknown origin) at 0.1 uM relative to control; values are per cent of control.
In data set [18] the target is Insulin-like growth factor 1 receptor (Homo sapiens) (UniProt P08069). The experiment in a line: Inhibition of IGF-1R (unknown origin) at 0.1 uM relative to control; values are per cent of control.

Active and inactive are the calls of the source. The rule behind the calls is not given here.

Sequence of Focal adhesion kinase 1 (Mus musculus) (P34152 whole entry): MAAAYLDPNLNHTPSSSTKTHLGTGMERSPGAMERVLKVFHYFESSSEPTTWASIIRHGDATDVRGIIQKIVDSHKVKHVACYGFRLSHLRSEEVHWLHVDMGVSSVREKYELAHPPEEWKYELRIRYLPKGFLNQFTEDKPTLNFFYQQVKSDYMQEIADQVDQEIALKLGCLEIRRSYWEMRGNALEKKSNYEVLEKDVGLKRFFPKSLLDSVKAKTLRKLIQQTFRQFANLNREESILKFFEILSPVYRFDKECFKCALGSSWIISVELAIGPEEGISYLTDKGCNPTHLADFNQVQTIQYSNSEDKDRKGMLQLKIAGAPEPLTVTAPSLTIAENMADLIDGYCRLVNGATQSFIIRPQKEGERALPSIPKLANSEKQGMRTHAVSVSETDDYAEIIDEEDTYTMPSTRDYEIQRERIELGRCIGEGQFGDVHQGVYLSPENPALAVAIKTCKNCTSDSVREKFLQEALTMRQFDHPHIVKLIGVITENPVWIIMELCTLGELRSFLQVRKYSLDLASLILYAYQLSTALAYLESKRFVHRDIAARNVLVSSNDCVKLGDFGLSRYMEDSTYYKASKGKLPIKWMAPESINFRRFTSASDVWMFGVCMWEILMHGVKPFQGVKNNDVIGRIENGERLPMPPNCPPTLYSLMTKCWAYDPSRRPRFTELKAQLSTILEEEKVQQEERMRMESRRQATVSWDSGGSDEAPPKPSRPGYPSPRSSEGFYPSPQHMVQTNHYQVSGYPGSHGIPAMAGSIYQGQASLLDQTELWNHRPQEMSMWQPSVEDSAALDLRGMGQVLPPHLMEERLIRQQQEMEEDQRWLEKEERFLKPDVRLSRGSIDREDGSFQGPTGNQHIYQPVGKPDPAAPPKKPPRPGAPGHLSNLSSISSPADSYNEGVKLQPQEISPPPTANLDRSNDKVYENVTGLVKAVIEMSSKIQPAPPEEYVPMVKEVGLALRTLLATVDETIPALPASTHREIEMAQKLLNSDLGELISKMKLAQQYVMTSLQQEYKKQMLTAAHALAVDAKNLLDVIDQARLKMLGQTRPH
Sequence of Serine/threonine-protein kinase Nek6 (Homo sapiens) (Q9HC98 whole entry): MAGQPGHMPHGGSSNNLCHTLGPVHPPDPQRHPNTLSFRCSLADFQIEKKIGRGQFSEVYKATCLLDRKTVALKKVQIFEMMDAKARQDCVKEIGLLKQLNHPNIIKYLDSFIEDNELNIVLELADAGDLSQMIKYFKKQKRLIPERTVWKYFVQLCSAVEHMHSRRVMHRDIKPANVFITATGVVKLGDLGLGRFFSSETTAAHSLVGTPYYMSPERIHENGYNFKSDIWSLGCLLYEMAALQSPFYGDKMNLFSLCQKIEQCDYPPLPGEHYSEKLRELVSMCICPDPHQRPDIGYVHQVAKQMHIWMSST
Sequence of Dual specificity mitogen-activated protein kinase kinase 1 (Homo sapiens) (Q02750 whole entry): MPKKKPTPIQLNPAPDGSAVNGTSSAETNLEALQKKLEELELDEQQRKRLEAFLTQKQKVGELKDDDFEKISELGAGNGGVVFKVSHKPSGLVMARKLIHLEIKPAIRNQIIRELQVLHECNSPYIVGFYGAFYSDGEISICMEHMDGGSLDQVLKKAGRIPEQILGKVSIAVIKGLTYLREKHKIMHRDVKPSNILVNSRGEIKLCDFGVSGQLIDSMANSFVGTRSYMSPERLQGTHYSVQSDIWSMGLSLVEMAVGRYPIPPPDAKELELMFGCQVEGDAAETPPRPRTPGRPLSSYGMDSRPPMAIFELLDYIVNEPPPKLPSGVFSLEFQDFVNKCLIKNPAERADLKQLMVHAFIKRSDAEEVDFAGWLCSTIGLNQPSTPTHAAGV
Sequence of Platelet-derived growth factor receptor beta (Homo sapiens) (P09619 whole entry): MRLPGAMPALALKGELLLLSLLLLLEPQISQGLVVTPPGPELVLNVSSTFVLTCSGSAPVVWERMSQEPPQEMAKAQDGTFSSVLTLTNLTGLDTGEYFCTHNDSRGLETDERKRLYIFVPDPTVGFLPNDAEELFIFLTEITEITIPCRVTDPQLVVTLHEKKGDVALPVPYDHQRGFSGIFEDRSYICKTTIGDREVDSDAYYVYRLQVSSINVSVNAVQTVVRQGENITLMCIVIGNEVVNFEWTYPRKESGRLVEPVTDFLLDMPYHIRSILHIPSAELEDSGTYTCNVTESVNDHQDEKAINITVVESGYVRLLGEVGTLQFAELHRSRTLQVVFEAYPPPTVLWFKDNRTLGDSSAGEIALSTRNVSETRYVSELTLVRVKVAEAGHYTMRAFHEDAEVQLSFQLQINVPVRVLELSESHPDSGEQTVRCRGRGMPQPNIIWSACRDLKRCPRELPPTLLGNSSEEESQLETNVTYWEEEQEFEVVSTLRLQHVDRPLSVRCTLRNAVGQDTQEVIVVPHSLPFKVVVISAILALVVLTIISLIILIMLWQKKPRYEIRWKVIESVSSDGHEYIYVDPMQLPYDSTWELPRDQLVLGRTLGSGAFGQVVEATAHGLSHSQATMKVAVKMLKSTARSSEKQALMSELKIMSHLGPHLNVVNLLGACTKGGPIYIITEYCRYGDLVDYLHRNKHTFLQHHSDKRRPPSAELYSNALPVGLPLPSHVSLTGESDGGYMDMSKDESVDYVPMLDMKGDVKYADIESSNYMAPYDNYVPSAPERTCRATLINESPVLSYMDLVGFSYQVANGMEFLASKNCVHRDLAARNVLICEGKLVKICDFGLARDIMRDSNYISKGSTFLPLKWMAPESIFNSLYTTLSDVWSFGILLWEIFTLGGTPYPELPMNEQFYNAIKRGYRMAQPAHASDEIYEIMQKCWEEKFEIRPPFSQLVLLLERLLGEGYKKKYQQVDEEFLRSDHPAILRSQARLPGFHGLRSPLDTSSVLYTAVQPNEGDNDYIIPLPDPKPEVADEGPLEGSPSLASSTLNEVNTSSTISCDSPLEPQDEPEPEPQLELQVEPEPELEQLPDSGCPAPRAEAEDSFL
Sequence of Vascular endothelial growth factor receptor 2 (Homo sapiens) (P35968 whole entry): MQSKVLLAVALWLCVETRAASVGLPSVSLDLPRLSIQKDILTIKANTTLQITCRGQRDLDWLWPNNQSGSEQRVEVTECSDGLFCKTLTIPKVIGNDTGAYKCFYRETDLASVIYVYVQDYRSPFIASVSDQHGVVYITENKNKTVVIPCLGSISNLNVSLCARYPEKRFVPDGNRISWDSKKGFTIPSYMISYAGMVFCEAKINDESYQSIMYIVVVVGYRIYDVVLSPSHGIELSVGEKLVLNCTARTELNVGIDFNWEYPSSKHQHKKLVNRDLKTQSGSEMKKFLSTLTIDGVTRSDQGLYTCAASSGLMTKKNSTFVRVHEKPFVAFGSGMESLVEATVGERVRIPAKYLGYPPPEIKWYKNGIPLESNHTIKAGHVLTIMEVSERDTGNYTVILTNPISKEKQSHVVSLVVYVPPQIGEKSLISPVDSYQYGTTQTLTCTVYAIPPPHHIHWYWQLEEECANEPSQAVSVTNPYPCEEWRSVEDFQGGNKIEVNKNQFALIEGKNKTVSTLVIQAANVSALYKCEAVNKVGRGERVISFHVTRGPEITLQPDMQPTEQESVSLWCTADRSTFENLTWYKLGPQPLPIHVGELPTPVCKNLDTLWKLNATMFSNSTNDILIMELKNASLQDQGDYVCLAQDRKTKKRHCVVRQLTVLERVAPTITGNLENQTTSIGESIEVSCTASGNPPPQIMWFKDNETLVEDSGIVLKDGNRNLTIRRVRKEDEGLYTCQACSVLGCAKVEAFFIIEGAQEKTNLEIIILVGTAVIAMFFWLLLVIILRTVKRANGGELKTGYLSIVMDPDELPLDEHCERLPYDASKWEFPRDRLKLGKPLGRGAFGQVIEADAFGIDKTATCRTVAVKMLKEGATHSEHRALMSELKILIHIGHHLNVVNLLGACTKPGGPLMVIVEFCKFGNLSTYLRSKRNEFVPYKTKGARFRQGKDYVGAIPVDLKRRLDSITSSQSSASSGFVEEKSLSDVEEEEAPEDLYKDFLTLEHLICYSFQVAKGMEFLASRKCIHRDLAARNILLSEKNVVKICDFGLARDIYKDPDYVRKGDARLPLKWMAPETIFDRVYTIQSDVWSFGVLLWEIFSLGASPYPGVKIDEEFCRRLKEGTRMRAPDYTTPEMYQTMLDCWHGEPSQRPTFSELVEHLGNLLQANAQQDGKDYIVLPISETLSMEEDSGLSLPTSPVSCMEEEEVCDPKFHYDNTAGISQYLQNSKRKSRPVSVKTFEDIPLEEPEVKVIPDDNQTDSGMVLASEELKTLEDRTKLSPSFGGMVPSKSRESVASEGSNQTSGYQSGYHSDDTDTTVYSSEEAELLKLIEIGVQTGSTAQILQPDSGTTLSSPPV
Sequence of RAF proto-oncogene serine/threonine-protein kinase (Homo sapiens) (P04049 whole entry): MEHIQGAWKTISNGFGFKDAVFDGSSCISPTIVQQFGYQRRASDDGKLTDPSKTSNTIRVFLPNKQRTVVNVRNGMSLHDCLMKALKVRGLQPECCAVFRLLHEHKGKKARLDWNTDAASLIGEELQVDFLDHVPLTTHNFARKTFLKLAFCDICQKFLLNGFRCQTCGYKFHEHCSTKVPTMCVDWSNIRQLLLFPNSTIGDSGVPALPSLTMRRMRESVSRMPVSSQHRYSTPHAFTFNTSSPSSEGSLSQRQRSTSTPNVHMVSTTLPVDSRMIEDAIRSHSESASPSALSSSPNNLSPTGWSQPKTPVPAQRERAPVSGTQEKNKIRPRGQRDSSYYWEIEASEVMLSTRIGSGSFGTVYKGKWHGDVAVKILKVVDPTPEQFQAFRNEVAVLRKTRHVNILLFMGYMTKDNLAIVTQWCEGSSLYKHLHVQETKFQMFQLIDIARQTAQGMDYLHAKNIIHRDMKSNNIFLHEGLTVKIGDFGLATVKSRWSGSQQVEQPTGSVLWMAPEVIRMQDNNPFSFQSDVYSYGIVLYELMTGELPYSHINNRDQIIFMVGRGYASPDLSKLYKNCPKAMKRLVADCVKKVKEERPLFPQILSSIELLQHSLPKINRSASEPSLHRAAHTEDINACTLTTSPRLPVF

For the compound `CNC(=O)c1ccccc1Nc1cc(Nc2ccc(N3CCOCC3)cc2OC)ncc1C(F)(F)F` [VS-4718], the result in the data set on 4T1 [1] and in the data set with 4T1 [2] was inactive. In addition, the inhibition result in [3] is “inactive”. The inhibition entry in the data set with 4T1 [4] is “Dose-Dependent Effect”. Besides, the Activity with 4T1 [5] was 10.5%; in data set [8], “Non-Toxic”. In data set [6], the inhibition entry was “Active”. Moreover, in the data set with 4T1 [7], the result was Active. The residual activity in data set [9] was 112%; in [10], 79%; in [11] it was 27%; in data set [12], 118%; in data set [13], 72%; in [14], 90%. For the same compound, the residual activity was determined as 110% in data set [15], 142% in data set [16], 98% in [17] and 123% in data set [18].

For the origin of these results see ChEMBL document CHEMBL5715945 (Cancer Biol Ther, 2010).
